This assay relates to Human H460 Large Cell Lung Cancer (NCI-H460 human NSCLC cells). As to the kind of experiment: Tumor growth in the H460 lung tumor xenograft model. It is filed as in vivo, Female NMRI nude mice. The note with it: for effect on tumor growth, single agent (in words): PSY 310 alone, 50 mg/kg/d po, 50 mg/kg/day; for potentiation of the cytostatic effects of cisplatin (in words): PSY 310 po co-administered with cisplatin ip. The protocol: PSY 310 was tested with 2 different dosing schedules of cisplatin. • Animals: Female NMRI nude mice (Janvier, Le Genest St Isle, France), age: 6-7 weeks at start of experiment Janvier, Le Genest St Isle, France; age 5-6 weeks). 70 animals were inoculated at the beginning of the experiment. • Cells: Human H460 Large Cell Lung Cancer (ATCC: HTB-177); • 3×10^6 cells from cell culture was inoculated subcutaneously per mouse in a volume of 200 μl on day 0. • Application route: subcutaneously; • 1 tumor/mouse • Tumor volume at • start of therapy: 62.5-100 mm^3 • (formula: a×b^2×0.5; a: length, b width) • Test compounds: Cisplatin, • PSY 310 (Pirenzepine) • Dosing: Cisplatin • 1) high dose: 1×/week, 2 weeks (days 7, 14) • dose: 2.5 mg/kg/day; route: ip • 2) low dose 5×/week, 2 weeks (days 7-11+14-18) • dose: 0.15 mg/kg/day; route: ip • PSY 310 • 1×/day for 12 days (days 7-19) • dose: 50 and 20 mg/kg/day; route: po • Vehicle/solvent: Cisplatin:water for injection • PSY 310: PBS, oral gavage • Application volume: 10 ml/kg • Criteria for study termination: Animal weight loss >20% • Tumor >10% body weight or ulceration of tumors • Parameters: […] [table] [table] NCI-H460 human NSCLC cells were implanted in the flanks of immunodeficient mice and growth of the resultant solid tumors was recorded. Mice were assigned to seven treatment groups as indicated above. Tumor dimensions (and animal body weights) were measured on days 10, 14, 17, and 21 after inoculation, and tumor volumes were calculated. As tumor growth was close to exponential evaluations were performed on the common logarithms of tumor volumes in order to render the data suitable for evaluation by a linear model. […] Alternatively, the ratios log(volume)/log(initial volume) were employed, yielding very similar results. Tumors with extremely small initial volumes (<20 μl) in which volume measurements are expected to be rather imprecise were omitted from the evaluations. Comparisons were carried out in the following way: • The slopes of log(volume) over time (i.e. the exponent of the approximately exponential volume growth) were determined for each animal. The ratios of the exponents averaged over the respective groups are given as a measure of the magnitude of the growth retarding effect of the current treatment. • Multivariate variance analyses using the day of measurement and Cisplatin/PSY 310 treatment as model effects were performed.

Entries after “also recorded” stand apart in the source; their conditions may differ.

`N.N.[Cl][Pt][Cl]` [Cisplatin]: the “exponent ratio (ratio of group-averaged slopes of log(tumor volume) over time)” value is, setting by setting: (Cisplatin high (2.5 mg/kg/day ip) versus Cisplatin low (0.15 mg/kg/day ip), ANOVA p = 0.91) 0.96; (Cisplatin high (2.5 mg/kg/day ip, 1x/week, 2 weeks) versus Control, ANOVA p = 0.014) 0.81; (Cisplatin low (0.15 mg/kg/day ip, 5x/week, 2 weeks) versus Control, ANOVA p = 0.077) 0.85. The “effect on tumor growth of cisplatin alone (in words)” value (cisplatin ip, low and high dose regimens) was “moderate effects”.

For `CN1CCN(CC(=O)N2c3ccccc3C(=O)Nc3cccnc32)CC1` [PSY 310], the “effect on tumor growth, single agent (in words)” value is “even more effective than cisplatin-low dose and cisplatin-high dose regimens; also recorded: single agent cytostatic properties; also recorded: major effect”; the “potentiation of the cytostatic effects of cisplatin (in words)” value is “potentiating the cytostatic effects of cisplatin”. Further, under “PSY 310 50 mg/kg/day po alone (1x/day, 12 days) versus Cisplatin high, ANOVA p = 0.016”, the “exponent ratio (ratio of group-averaged slopes of log(tumor volume) over time)” value came to 0.74. Besides, the “exponent ratio (ratio of group-averaged slopes of log(tumor volume) over time)” value (PSY 310 50 mg/kg/day po alone (1x/day, 12 days) versus Control, ANOVA p = 0.0003) is recorded as 0.61. Also, under “listed as Pirenzepine”, the “effect on tumor growth, single agent (in words)” value is “significant anti-cancer activity by itself” and the “potentiation of the cytostatic effects of cisplatin (in words)” value was “significant potentiating anti-cancer activity”.

The values above are taken from patent publication US20140271922A1, “PIRENZEPINE AS AN AGENT IN CANCER TREATMENT” (PROTEOSYS AG, priority 2009, published 2014).
